Key:
[1] = tested on: BVDV I-N-dIns β-D-2′-CH3-riboC-R (β-D-2′-CH3-riboC-resistant BVDV); test: BVDV virus yield reduction assay in de novo-infected MDBK cells; assay type: cell-based, bovine viral diarrhea virus
Protocol: (§1) To conduct the virus focus assay, MDBK cells were seeded onto 6-well plates containing 2×10^5 cells per well and grown at 37° C./5% CO2 for at least 5 hours before use. The test samples (culture supernatants combined with cell monolayers) were frozen/thawed twice, serially diluted by 10-fold in medium, and used to inoculate test cells in 6-well plates at 0.2 mL per well. The inoculum was removed after 1 hour of adsorption, and the cells were overlaid with 3 mL of 0.5% agarose in complete growth medium (1× DMEM (Cellgro), supplemented with 8% horse serum, penicillin, streptomycin, L-glutamine, sodium pyruvate, and 25 mM HEPES). After 3 days of incubation at 37° C./5% CO2, the plates were fixed for 1 hour with 3 mL of 7.4% formaldehyde in PBS, and washed with PBS. The cell monolayers were permeabilized with 1 mL of PBS-0.25% Triton X-100 per well for 10 minutes, and incubated with 0.5 mL of goat anti-BVDV antiserum (VMDR, Inc.; diluted 1:1000 in PBS-0.25% Triton X-100) for 1 hour. The antiserum was then removed, and cell monolayers were washed with PBS (twice for 15 min) and incubated with 0.5 mL of peroxidase-conjugated donkey anti-goat antibody (diluted 1:1000 in PBS-0.25% Triton X-100) for another 1 hour. After the antibody was removed, the cell monolayers were washed with PBS (twice for 15 min), and incubated with 0.5 mL of diaminobenzidine (DAB) peroxidase substrate solution (Vector Laboratories) at room temperature until virus foci become visible (approximately 15 minutes). All incubations were carried out with rocking. The staining was stopped by washing with water and the plates were allowed to air dry. Virus titers were calculated in FFU/mL, using the following equation: TFFU/mL=N×5×D; where T is a virus titer in FFU/mL; N is a number of foci per well; and D is a dilution factor for the corresponding virus sample.
To conduct the virus yield reduction assay, MDBK cells were seeded onto 24-well plates (1×10^5 cells per well) and grown at 37° C./5% CO2 overnight. Cells were infected with BVDV at a multiplicity of infection of 0.1. After 1-hour adsorption, the inoculum was removed, and cells were washed with PBS and then overlaid with 1 mL of fresh growth medium, containing serial 2-fold dilutions of the test compound (0-32 μM for β-D-2′-CH3-riboC and 0-800 IU/mL for Intron®A). After incubation at 37° C./5% CO2 for 48 hours, the plates were frozen/thawed at −70° C. twice to lyse the cell cultures. The virus titer in the cell culture was quantified by focus assay as described above. […] The EC50, EC90 and EC4-log values were derived by curve fitting using XLFit software.

[2] = tested on: BVDV (strain I-N-dIns) in persistently infected MDBK cells; test: Single or double treatment of persistently infected MDBK cells, virus titers by focus assay; assay type: cell-based, bovine viral diarrhea virus; details: for log value of the BVDV titer: 0 IU/mL Interferon alpha-2b; for reduction of viral titers: single treatment, 7 days
Protocol: Persistent BVDV infection was established in MDBK cell line (ATCC, Manassas, Va., Catalog #: CCL-22) by in vitro infection of naive cells with a noncytophatic (ncp) BVDV (strain I-N-dIns; Dr. R. Donis, U. of Nebraska, Lincoln, Nebr.). The multiplicity of infection (MOI) was 0.01. Cells were passaged twice per week (splitting ratio 1:15) until the stable high-level of infection (10^6-10^7 focus forming units (FFU) per mL) was achieved, as was determined by a focus assay. Next, the persistently infected cells were grown in 6-well culture plates with 8 μM or without β-D-2′-CH3-riboC (Idenix Pharmaceuticals). Cell cultures were passaged every three to four days by splitting with a ratio of 1:15 to 1:20. […] The virus titers in cell cultures were monitored at the end of each passage by the virus focus assay.
as §1
The effect of Intron A, alone or in combination with β-D-2′-CH3-riboC, on the wild type BVDV was further studied in the persistently infected MDBK cells. In one experimental setting, the virus titers were determined after 7 days (two passages) of single or double treatment with several inhibitor concentrations.

[3] = tested on: BVDV strain I-N-dIns (wild type); test: microbe, parasite or virus in culture; assay type: cell-based, bovine viral diarrhea virus
Protocol: as §1
(§2) To conduct the virus yield reduction assay, MDBK cells were seeded onto 24-well plates (1×10^5 cells per well) and grown at 37° C./5% CO2 overnight. […] The virus titer in the cell culture was quantified by focus assay as described above. […]

BVDV strain I-NADL = test: BVDV virus yield reduction assay; assay type: cell-based, bovine viral diarrhea virus; details: cp
Protocol: as §1, with “sample. […]” for “sample.”
as §2

[4] = tested on: BVDV (strain I-N-dIns) in persistently infected MDBK cells; test: Passaging of persistently infected MDBK cells with 8 μM β-D-2′-CH3-riboC (isolation of resistant BVDV); assay type: cell-based, bovine viral diarrhea virus
Protocol: Persistent BVDV infection was established in MDBK cell line (ATCC, Manassas, Va., Catalog #: CCL-22) by in vitro infection of naive cells with a noncytophatic (ncp) BVDV (strain I-N-dIns; Dr. R. Donis, U. of Nebraska, Lincoln, Nebr.). The multiplicity of infection (MOI) was 0.01. Cells were passaged twice per week (splitting ratio 1:15) until the stable high-level of infection (10^6-10^7 focus forming units (FFU) per mL) was achieved, as was determined by a focus assay. Next, the persistently infected cells were grown in 6-well culture plates with 8 μM or without β-D-2′-CH3-riboC (Idenix Pharmaceuticals). Cell cultures were passaged every three to four days by splitting with a ratio of 1:15 to 1:20. After eight passages, cell cultures grown in the presence of β-D-2′-CH3-riboC were expanded to T-75 culture flask, freeze/thawed twice, and used as a virus stock of β-D-2′-CH3-riboC-resistant BVDV for further characterization. The virus titers in cell cultures were monitored at the end of each passage by the virus focus assay.
To conduct the virus focus assay, MDBK cells were seeded onto 6-well plates containing 2×10^5 cells per well and grown at 37° C./5% CO2 for at least 5 hours before use. The test samples (culture supernatants combined with cell monolayers) were frozen/thawed twice, serially diluted by 10-fold in medium, and used to inoculate test cells in 6-well plates at 0.2 mL per well. The inoculum was removed after 1 hour of adsorption, and the cells were overlaid with 3 mL of 0.5% agarose in complete growth medium (1× DMEM (Cellgro), supplemented with 8% horse serum, penicillin, streptomycin, L-glutamine, sodium pyruvate, and 25 mM HEPES). After 3 days of incubation at 37° C./5% CO2, the plates were fixed for 1 hour with 3 mL of 7.4% formaldehyde in PBS, and washed with PBS. […] Virus titers were calculated in FFU/mL, using the following equation: TFFU/mL=N×5×D; where T is a virus titer in FFU/mL; N is a number of foci per well; and D is a dilution factor for the corresponding virus sample. […]

HCV = details: ribavirin alone; cited from earlier work
[5] = Bovine viral diarrhea virus isolates and strains, MDBK, BVDV strain I-N-dIns β-D-2′-CH3-riboC-R, ncp, 48 hours
[6] = Bovine viral diarrhea virus isolates and strains

Q: What does the source list for `CC1(O)C(O)[C@@H](CO)O[C@H]1n1ccc(N)nc1=O` (stereo partly drawn) [β-D-2′-CH3-riboC]?
A: EC4 log ([1]; BVDV strain I-N-dIns β-D-2′-CH3-riboC-R, ncp, 48 hours): >32 μM; EC50 [1, 5]: > 32000 nM; EC90 [1, 5]: > 32000 nM; fold more resistant to the inhibitor than the wild type virus ([1]; based on the EC50 values of the virus yield reduction assay): at least 54 fold; effect on the resistant virus yield ([1]; highest concentration tested (32 μM)): no effect; log value of the BVDV titer ([2]; 2 μM β-D-2′-CH3-riboC, 7 days (two passages)): 5.10 log; log value of the BVDV titer ([2]; 4 μM β-D-2′-CH3-riboC, 7 days (two passages)): 4.55 log; reduction of virus titer ([2]; 8 μM β-D-2′-CH3-riboC alone, 7 days (two passages)): 6.2 logs; log value of the BVDV titer ([2]; 8 μM β-D-2′-CH3-riboC, 7 days (two passages)): 0.40 log; reduction of viral titers ([2]; 2 μM β-D-2′-CH3-riboC): 1.61 logs; reduction of viral titers ([2]; 4 μM β-D-2′-CH3-riboC): 2.06 logs; EC4 log ([3]; BVDV strain I-N-dIns, ncp, concentration reducing viral titer by 99.99%, 48 hours): 7.14±1.26 μM; EC50 ([3]; Bovine viral diarrhea virus isolates and strains, MDBK, BVDV strain I-N-dIns, ncp, concentration reducing viral titer by 50%, 48 hours): 590 ± 120 nM; virus titers ([3]; at 16 μM, wild type virus, below the detection limit): < 10 FFU/mL; EC50 (BVDV strain I-NADL; [6]): 680 ± 80 nM; EC90 (BVDV strain I-NADL; [6]): 1730 ± 110 nM; EC4 log (BVDV strain I-NADL): 8.22 ± 0.05 μM; virus titer plateau after reappearance of virus ([4]; additional passaging in the presence of the inhibitor (virus reappeared at passage 3 to 5)): 10^5 FFU/mL; virus detection in culture ([4]; after two passages): no longer detectable; difference in virus titers versus untreated culture ([4]; observed even after 28 days of treatment): ~10 fold

Q: With `NC(=O)c1ncn([C@@H]2O[C@H](CO)[C@@H](O)[C@H]2O)n1` [Ribavirin, 1-β-D-ribofuranosyl-1-1,2,4-triazole-3-carboxamide] as the compound, how does the “serum amino transferase levels reduced to normal, share of patients” value (HCV) read?
A: 40%

From patent US8674085B2, “2′-branched nucleosides and Flaviviridae mutation” (priority 2002, dated 2014)
